{"source": "paper PMC9684503", "about": "(Communications Biology, 2022)", "key": {"rat VMAT2 Q143A": {"target": "rat VMAT2 Q143A (Rattus norvegicus, UniProt Q01827, Q143A)", "sequence (Q01827 whole entry Q143A)": "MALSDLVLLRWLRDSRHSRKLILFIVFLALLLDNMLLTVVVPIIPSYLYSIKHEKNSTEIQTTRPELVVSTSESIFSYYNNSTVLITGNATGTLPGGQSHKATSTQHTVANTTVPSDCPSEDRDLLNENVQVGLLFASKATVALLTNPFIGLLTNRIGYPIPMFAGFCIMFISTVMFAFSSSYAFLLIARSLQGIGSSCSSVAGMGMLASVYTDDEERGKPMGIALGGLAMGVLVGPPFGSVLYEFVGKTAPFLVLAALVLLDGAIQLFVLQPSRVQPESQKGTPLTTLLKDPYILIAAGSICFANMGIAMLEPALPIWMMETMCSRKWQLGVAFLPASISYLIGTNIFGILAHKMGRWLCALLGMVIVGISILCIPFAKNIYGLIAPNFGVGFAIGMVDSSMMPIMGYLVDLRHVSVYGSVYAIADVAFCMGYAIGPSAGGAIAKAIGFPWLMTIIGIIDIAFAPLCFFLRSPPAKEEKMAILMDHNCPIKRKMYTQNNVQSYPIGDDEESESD", "assay": "FFN206 uptake assay, VMAT2 mutant", "method": "(§1) For activity assays, [^3H]-DTBZ and [^3H]-SMT binding and competition assays (see section below), several VMAT2 mutants were prepared. […] In addition, a selection of rVMAT2 mutants carrying mutations designed from binding modes identified by docking and MD-simulation was prepared in a pcDNA3.1 rVMAT2-Strep tag II plasmid."}, "rat VMAT2 Y434A": {"target": "rat VMAT2 Y434A (Rattus norvegicus, UniProt Q01827, Y434A)", "sequence (Q01827 whole entry Y434A)": "as the sequence (Q01827 whole entry Q143A) above, with A143Q, Y434A counted along it", "assay": "FFN206 uptake assay, VMAT2 mutant", "method": "as §1"}, "rat VMAT2 P314A": {"target": "rat VMAT2 P314A (Rattus norvegicus, UniProt Q01827, P314A)", "sequence (Q01827 whole entry P314A)": "as the sequence (Q01827 whole entry Q143A) above, with A143Q, P314A counted along it", "assay": "FFN206 uptake assay, VMAT2 mutant", "method": "as §1"}, "rat VMAT2-His": {"target": "T1, rat VMAT2-His (Rattus norvegicus, UniProt Q01827)", "T1 construct": "The ORF of rat VMAT2 was subcloned into a pFastBac vector; His; made in house; host or cells: Sf9 insect cells (baculovirus)", "T1 sequence (Q01827 whole entry)": "as the sequence (Q01827 whole entry Q143A) above, with A143Q counted along it", "assay": "Differential scanning fluorimetry (DSF) with CPM dye: change of melting temperature of purified VMAT2", "assay_type": "binding", "procedure,_shortened": "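Rat VMAT2-His from Sf9 baculovirus cells, purified by IMAC and SEC in DDM/CHS micelles, was screened by CPM-dye DSF over a 25–95 °C ramp at 2 °C/min. Tm was taken from the second derivative of the melting curve. Hits were validated in triplicate at 200 μM, with ΔTm > 5× SD as the cutoff.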"}, "human VMAT1": {"target": "T2, human VMAT1 (Homo sapiens, UniProt P54219)", "T2 construct": "expressed in transfected cells; host or cells: Hek293 cells, transient", "T2 sequence (P54219 1-525)": "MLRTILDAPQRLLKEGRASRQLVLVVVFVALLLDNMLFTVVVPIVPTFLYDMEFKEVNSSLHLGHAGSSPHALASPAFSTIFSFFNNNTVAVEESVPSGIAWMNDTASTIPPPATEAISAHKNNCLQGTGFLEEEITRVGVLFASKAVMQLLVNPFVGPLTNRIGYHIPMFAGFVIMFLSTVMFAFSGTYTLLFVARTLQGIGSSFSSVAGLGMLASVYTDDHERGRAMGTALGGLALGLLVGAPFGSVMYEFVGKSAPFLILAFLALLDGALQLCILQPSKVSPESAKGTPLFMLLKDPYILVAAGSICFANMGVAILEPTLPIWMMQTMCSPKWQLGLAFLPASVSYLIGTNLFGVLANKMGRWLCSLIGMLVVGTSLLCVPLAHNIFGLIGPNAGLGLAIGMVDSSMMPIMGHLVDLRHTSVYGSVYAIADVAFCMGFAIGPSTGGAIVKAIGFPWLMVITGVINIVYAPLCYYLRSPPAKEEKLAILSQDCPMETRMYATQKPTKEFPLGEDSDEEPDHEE", "assay": "FFN206 uptake assay in transfected Hek293 cells", "assay_type": "cell-based", "settings": "Table S1, substrate uptake assays in transfected Hek293 cells"}, "VMAT2 [1]": {"target": "T3, VMAT2 (Rattus norvegicus, UniProt Q01827)", "T3 sequence (Q01827 whole entry)": "as the sequence (Q01827 whole entry Q143A) above, with A143Q counted along it", "settings": "hek293 cells, 50 µM"}, "VMAT2 [2]": {"target": "T3, VMAT2", "assay": "[3H]-DTBZ competition assay in Hek293 cells expressing VMAT2;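 further: HEK293 cells transfected with VMAT2, pretreated 30 min with compound, then given 5 nM [3H]-DTBZ for 20 min at 37 °C, bound label read by scintillation counting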", "settings": "for [3H]-DTBZ binding relative to no compound (=1), replicate samples: Fig. 3b source data"}, "human VMAT2": {"target": "T4, human VMAT2 (Homo sapiens, UniProt Q05940)", "T4 construct": "expressed in transfected cells; host or cells: Hek293 cells, transient", "T4 sequence (Q05940 whole entry)": "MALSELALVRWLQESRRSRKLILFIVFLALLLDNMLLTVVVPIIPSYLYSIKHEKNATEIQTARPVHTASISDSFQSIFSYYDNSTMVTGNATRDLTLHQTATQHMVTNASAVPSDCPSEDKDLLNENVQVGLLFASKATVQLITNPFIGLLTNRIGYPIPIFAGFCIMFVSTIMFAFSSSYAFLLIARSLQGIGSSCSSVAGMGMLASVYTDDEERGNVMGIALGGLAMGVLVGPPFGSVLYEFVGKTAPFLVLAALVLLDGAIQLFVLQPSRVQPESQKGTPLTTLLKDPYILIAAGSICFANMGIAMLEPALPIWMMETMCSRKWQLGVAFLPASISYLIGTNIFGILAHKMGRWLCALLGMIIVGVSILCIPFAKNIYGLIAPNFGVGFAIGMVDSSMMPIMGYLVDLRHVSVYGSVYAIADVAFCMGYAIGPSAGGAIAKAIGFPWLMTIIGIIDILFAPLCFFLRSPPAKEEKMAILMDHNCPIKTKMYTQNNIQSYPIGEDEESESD", "assay": "FFN206 uptake assay in transfected Hek293 cells", "assay_type": "cell-based", "settings": "Table S1, substrate uptake assays in transfected Hek293 cells"}, "rat VMAT2": {"target": "rat VMAT2 (Rattus norvegicus, UniProt Q01827)", "sequence (Q01827 whole entry)": "as the sequence (Q01827 whole entry Q143A) above, with A143Q counted along it", "assay": "FFN206 uptake assay in transfected Hek293 cells"}}, "note": "“And” between values parts separate entries of the source, which are not always exact repeats. Identical values can stand only once."}
{"smiles": "OCc1cc(C(O)CNCCCCCCOCCCCc2ccccc2)ccc1O", "note": "(stereo not shown) [Salmeterol]", "values": [{"measurement": "IC50", "setting": "rat VMAT2 Q143A", "result": "148 ± 33", "unit": "nM"}, {"measurement": "IC50", "setting": "rat VMAT2 Y434A", "result": "126 ± 87", "unit": "nM"}, {"measurement": "IC50", "setting": "rat VMAT2 P314A", "result": "234 ± 65", "unit": "nM"}, {"measurement": "ΔTm", "setting": "rat VMAT2-His; Table 1, DSF screening, mean ± SD of triplicates", "result": "9.71 ± 0.22", "unit": "oC"}, {"measurement": "ΔTm at 12 µM", "setting": "rat VMAT2-His; Table S2 dose response, compound 0,12 µM, read-out: ΔTm", "result": 5.78, "unit": "°C"}, {"measurement": "ΔTm at 37 µM", "setting": "rat VMAT2-His; Table S2 dose response, compound 0,37 µM, read-out: ΔTm", "result": 6.25, "unit": "°C"}, {"measurement": "ΔTm at 10 µM", "setting": "rat VMAT2-His; Table S2 dose response, compound 10 µM, read-out: ΔTm", "result": 7.48, "unit": "°C"}, {"measurement": "ΔTm at 30 µM", "setting": "rat VMAT2-His; Table S2 dose response, compound 30 µM, read-out: ΔTm", "result": 7.9, "unit": "°C"}, {"measurement": "ΔTm at 90 µM", "setting": "rat VMAT2-His; Table S2 dose response, compound 90 µM, read-out: ΔTm", "result": 8.7, "unit": "°C"}, {"measurement": "ΔTm at 270 µM", "setting": "rat VMAT2-His; Table S2 dose response, compound 270 µM, read-out: ΔTm", "result": 10.5, "unit": "°C"}, {"measurement": "ΔTm at 11 µM", "setting": "rat VMAT2-His; Table S2 dose response, compound 1,11 µM, read-out: ΔTm", "result": 6.55, "unit": "°C"}, {"measurement": "ΔTm at 33 µM", "setting": "rat VMAT2-His; Table S2 dose response, compound 3,33 µM, read-out: ΔTm", "result": 7.04, "unit": "°C"}, {"measurement": "IC50", "setting": "human VMAT1", "result": "23 ± 2", "unit": "nM"}, {"measurement": "activity", "setting": "VMAT2 [1]", "result": "0.37 ± 2.83", "unit": "%"}, {"measurement": "effect on [3H]-DTBZ binding compared with DMSO control (one-way ANOVA, p < 0.001)", "setting": "VMAT2 [2]; 50 μM compound", "result": "statistically significantly effect"}, {"measurement": "[3H]-DTBZ binding relative to no compound (=1), replicate samples", "setting": "VMAT2 [2]; compound 0.0017", "result": "0.6032 and 1.156 and 0.8878 and 0.838"}, {"measurement": "[3H]-DTBZ binding relative to no compound (=1), replicate samples", "setting": "VMAT2 [2]; compound 0.0051", "result": "0.6168 and 0.8711 and 1.077 and 0.9012"}, {"measurement": "[3H]-DTBZ binding relative to no compound (=1), replicate samples", "setting": "VMAT2 [2]; compound 0.0152", "result": "0.7563 and 1.108 and 1.007"}, {"measurement": "[3H]-DTBZ binding relative to no compound (=1), replicate samples", "setting": "VMAT2 [2]; compound 0.0457", "result": "0.5988 and 0.6867 and 0.7774 and 0.6452"}, {"measurement": "[3H]-DTBZ binding relative to no compound (=1), replicate samples", "setting": "VMAT2 [2]; compound 0.1372", "result": "0.4074 and 0.4854 and 0.3736 and 0.3232"}, {"measurement": "[3H]-DTBZ binding relative to no compound (=1), replicate samples", "setting": "VMAT2 [2]; compound 0.4115", "result": "0.02476 and 0.03862 and 0.09845 and 0.04206"}, {"measurement": "[3H]-DTBZ binding relative to no compound (=1), replicate samples", "setting": "VMAT2 [2]; compound 1.2346", "result": "0.01432 and 0.02317 and 0.00733 and 0.04172"}, {"measurement": "[3H]-DTBZ binding relative to no compound (=1), replicate samples", "setting": "VMAT2 [2]; compound 3.7037", "result": "0.02156 and 0.02614 and 0.01787 and 0.1343"}, {"measurement": "[3H]-DTBZ binding relative to no compound (=1), replicate samples", "setting": "VMAT2 [2]; compound 11.1111", "result": "-0.04565 and 0.05011 and -0.00482 and -0.01021"}, {"measurement": "[3H]-DTBZ binding relative to no compound (=1), replicate samples", "setting": "VMAT2 [2]; compound 33.3333", "result": "-0.01836 and -0.0105 and -0.00518 and -0.00848"}, {"measurement": "[3H]-DTBZ binding relative to no compound (=1), replicate samples", "setting": "VMAT2 [2]; compound 100.0000 (μM per methods)", "result": "0.02729 and -0.01624 and -0.00322 and -0.00727"}, {"measurement": "IC50", "setting": "human VMAT2", "result": "35 ± 16", "unit": "nM"}, {"measurement": "IC50", "setting": "rat VMAT2", "result": "53 ± 28", "unit": "nM"}, {"measurement": "VMAT2-specific FFN206 uptake relative to DMSO (=1), replicate samples", "setting": "rat VMAT2; Fig. 2a source data, 25 μM compound", "result": "0.01652 and -0.1153 and -0.05311 and -0.0161"}, {"measurement": "FFN206 uptake relative to no compound (=1), replicate samples", "setting": "rat VMAT2; Fig. 2b/2c source data, compound 0.0152 μM", "result": "0.8683 and 0.9316 and 0.8545 and 0.8755 and 0.7872 and 0.8834 and 0.9116 and 0.9363"}, {"measurement": "FFN206 uptake relative to no compound (=1), replicate samples", "setting": "rat VMAT2; Fig. 2b/2c source data, compound 0.1372 μM", "result": "0.4384 and 0.5181 and 0.4428 and 0.5409 and 0.2594 and 0.3377 and 0.3056 and 0.4141"}, {"measurement": "FFN206 uptake relative to no compound (=1), replicate samples", "setting": "rat VMAT2; Fig. 2b/2c source data, compound 0.4115 μM", "result": "0.2986 and 0.3445 and 0.2962 and 0.3132 and 0.1258 and 0.1847 and 0.149 and 0.1946"}, {"measurement": "FFN206 uptake relative to no compound (=1), replicate samples", "setting": "rat VMAT2; Fig. 2b/2c source data, compound 1.2346 μM", "result": "0.2192 and 0.2619 and 0.2463 and 0.2625 and -0.00094 and 0.06663 and 0.05805 and 0.07997"}, {"measurement": "FFN206 uptake relative to no compound (=1), replicate samples", "setting": "rat VMAT2; Fig. 2b/2c source data, compound 3.7037 μM", "result": "0.2883 and 0.2538 and 0.257 and 0.1826 and 0.05594 and 0.1039 and 0.07279 and 0.105"}, {"measurement": "FFN206 uptake relative to no compound (=1), replicate samples", "setting": "rat VMAT2; Fig. 2b/2c source data, compound 11.1111 μM", "result": "0.2315 and 0.2175 and 0.2018 and 0.1642 and 0.02429 and 0.09314 and 0.05353 and 0.1229"}, {"measurement": "FFN206 uptake relative to no compound (=1), replicate samples", "setting": "rat VMAT2; Fig. 2b/2c source data, compound 100.0000 μM", "result": "0.2045 and 0.2463 and 0.2058 and 0.2286 and -0.0325 and 0.06428 and 0.00994 and 0.07"}, {"measurement": "FFN206 uptake relative to no compound (=1), replicate samples", "setting": "rat VMAT2; Fig. 2c source data, compound 0.0017 μM", "result": "0.9528 and 0.9756 and 1.008 and 0.9844"}]}
